Experimental data taken from patent US11642336B2, “5-HT2A agonists for use in treatment of depression” (priority 2019, dated 2023).
Where a name gives a salt, the structure may show the parent alone. Read-outs that look alike come from different tables or passages of the source. Marks after values point to notes of the source that are not given here.

Tests used:
[1] = biological target: T1, human 5-HT2A (Homo sapiens (Human), UniProt P28223); experiment: cell-based; type: cell-based; conditions: for EC50: duplicate determinations
[2] = biological target: 5-HT2B (Homo sapiens (Human), UniProt P41595); experiment: IP assay (Eurofins, IP1 HTRF), HEK293 cells; type: cell-based; conditions: for 5-HT2B Rmax: % of Rmax of 5-HT; for EC50: duplicate determinations, read-out: 5-HT2B EC50;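 for 5-HT2B Rmax: agonist effect read as cellular IP1 production by HTRF using a europium cryptate anti-IP1 antibody donor and D2-labeled IP1 acceptor, eight compound concentrations in each cell line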;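 for Selectivity EC50 5-HT2B/EC50 5-HT2A: agonist effect read as cellular IP1 production by HTRF using a europium cryptate anti-IP1 antibody donor and D2-labeled IP1 acceptor, eight compound concentrations in each cell line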
Chain of 5-HT2B (P41595 whole entry, looked up): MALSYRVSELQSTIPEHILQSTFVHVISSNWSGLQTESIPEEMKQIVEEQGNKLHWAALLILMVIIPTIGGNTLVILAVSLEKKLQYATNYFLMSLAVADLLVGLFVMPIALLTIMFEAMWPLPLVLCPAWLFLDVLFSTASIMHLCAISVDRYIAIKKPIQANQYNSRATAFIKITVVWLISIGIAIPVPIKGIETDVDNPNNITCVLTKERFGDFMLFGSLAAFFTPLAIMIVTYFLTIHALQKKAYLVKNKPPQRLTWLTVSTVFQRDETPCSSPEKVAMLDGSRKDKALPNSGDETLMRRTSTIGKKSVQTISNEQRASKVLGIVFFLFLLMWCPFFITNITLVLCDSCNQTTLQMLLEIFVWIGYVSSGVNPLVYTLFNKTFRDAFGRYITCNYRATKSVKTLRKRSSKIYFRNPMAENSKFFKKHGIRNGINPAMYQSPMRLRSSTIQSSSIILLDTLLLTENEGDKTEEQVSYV
Description: (§1) The agonist properties of the compounds were characterized at HEK293 cell lines expressing the human 5-HT2A, human 5-HT2B or human 5-HT2C receptors in an IP assay essentially as previously described.^19 The testing was performed by Eurofins. In the assay, the agonist activity of the compound at the receptors is investigated by measuring its effect on IP1 production in the cell using the Homogeneous Time Resolved Fluorescence (HTRF) detection method. […] Following incubation, the cells were lysed, and the fluorescence acceptor (D2-labeled IP1) and fluorescence donor (anti-IP1 antibody labeled with europium cryptate) were added. […] The test compounds were characterized in eight different concentrations in duplicate at each of the three cell lines.

[3] = biological target: T2, 5-HT2C (Homo sapiens (Human), UniProt P28335); experiment: IP assay (Eurofins, IP1 HTRF), HEK293 cells; type: cell-based;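 for 5-HT2B Rmax: agonist effect read as cellular IP1 production by HTRF using a europium cryptate anti-IP1 antibody donor and D2-labeled IP1 acceptor, eight compound concentrations in each cell line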;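 for Selectivity EC50 5-HT2B/EC50 5-HT2A: agonist effect read as cellular IP1 production by HTRF using a europium cryptate anti-IP1 antibody donor and D2-labeled IP1 acceptor, eight compound concentrations in each cell line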
T2 sequence (P28335 whole entry, looked up): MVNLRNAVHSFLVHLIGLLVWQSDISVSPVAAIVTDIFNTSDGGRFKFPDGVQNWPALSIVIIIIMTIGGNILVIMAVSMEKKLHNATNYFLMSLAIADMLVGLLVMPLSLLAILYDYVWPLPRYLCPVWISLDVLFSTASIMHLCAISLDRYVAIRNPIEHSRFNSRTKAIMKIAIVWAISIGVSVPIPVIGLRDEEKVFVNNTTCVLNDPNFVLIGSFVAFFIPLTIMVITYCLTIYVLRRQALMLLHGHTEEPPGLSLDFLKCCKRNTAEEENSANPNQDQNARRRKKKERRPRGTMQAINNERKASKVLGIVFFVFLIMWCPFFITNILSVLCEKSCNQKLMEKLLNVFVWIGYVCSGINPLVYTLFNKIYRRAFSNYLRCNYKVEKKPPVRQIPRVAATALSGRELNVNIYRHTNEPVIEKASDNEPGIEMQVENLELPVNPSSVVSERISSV
Description: as §1

[4] = biological target: T2, 5-HT2C; experiment: Ca2+/Fluo-4 assay, stable h5-HT2C-HEK293 cell line; type: cell-based; conditions: for EC50: agonist potency, n = 3-4, read-out: 5-HT2C EC50;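 for all read-outs here: Agonist-induced intracellular Ca2+ rise read by Fluo-4 fluorescence in HEK293 cells stably expressing the human 5-HT2C receptor, each compound run in duplicate on three or more occasions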
Description: The functional properties of the compounds were characterised at stable HEK293 cell lines stably expressing the human 5-HT2A receptor or human 5-HT2C receptor in the Ca^2+/Fluo-4 assay essentially as previously described.^10 Briefly, the cells were split into poly-D-lysine-coated black 96-well plates with clear bottoms (6×10^4 cells/well). The following day the culture medium was aspirated and the cells were incubated in 50 μl assay buffer [Hanks Buffered Saline Solution containing 20 mM HEPES, 1 mM CaCl2, 1 mM MgCl2, 2.5 mM probenecid, pH 7.4] supplemented with 6 mM Fluo-4/AM at 37° C. for 1 hour. Next, the buffer was aspirated, the cells were washed once with 100 μl assay buffer, and then 100 μl assay buffer was added to the cells (in the antagonist experiments the compound was added at this point). […] The compounds were characterized in duplicate at least three times at each cell line.

[5] = biological target: T1, human 5-HT2A; experiment: cell-based; type: cell-based; conditions: for 5-HT2A Rmax ± S.E.M: % of the Rmax of 5-HT; for EC50: agonist potency, n = 3-4
[6] = tested on: male Sprague Dawley rats treated with ACTH or vehicle; experiment: forced swim test, adrenocorticotropic hormone (ACTH) model; type: in vivo
Description: The adrenocorticotropic hormone model (ACTH) model was conducted as previously described.^14 Male Sprague Dawley rats were used (age 7 weeks, N=50) (Taconic Biosciences A/S, Lille Skensved, Denmark). After 1 week habituation, the rats were given either 100 μg ACTH/animal/day s.c. (Adrenocorticotropic Hormone 1-24 (China Peptides, China)) at 10 a.m. for 14 days (n=30) or vehicle (VEH) consisting of 0.9% saline (n=20). At day 14, the rats were subjected to a pre-swim test (15 minutes). […] Preceding the FST, rat baseline mobility was determined in the (OFT). The OFT and the FST were conducted as described above.

[7] = read-out: 5-HT2A [pEC50 ± S.E.M.] (converted)

Structure (SMILES)	5-HT2A Rmax [1] [%]	5-HT2B Rmax [2] [%]	EC50 [3] [µM]	5-HT2C Rmax (%) ([3]; IP assay, % of Rmax of 5-HT)	5-HT2C agonist activity (n.a./w.a.) ([4]; tested up to 50 μM)	5-HT2A Rmax ± S.E.M [5] [%]	Selectivity EC50 5-HT2C/EC50 5-HT2A ([5]; Ca2+/Fluo-4 assay, bounds are conservative estimates)	EC50 ([5]; read-out: 5-HT2A EC50) [µM]	EC50 [5, 7] [µM]	5-HT2A Rmax ([1]; IP assay, % of Rmax of 5-HT) [%]	EC50 ([1]; IP assay) [µM]	Selectivity EC50 5-HT2B/EC50 5-HT2A ([2]; bounds are conservative estimates)	EC50 [2] [µM]	5-HT2B agonist activity (n.a.) ([2]; up to 100 μM (Table 3))	immobility time in the forced swim test, ACTH-treated rats ([6]; ACTH-treated rats, FIG. 4A)	immobility time in the forced swim test, vehicle-treated rats ([6]; vehicle-treated rats, 15 mg/kg i.p., FIG. 4B)	EC50 [4] [µM]
COc1cc(CC(C)N)c(OC)cc1I (stereo not drawn) [DOI, 2,5-Dimethoxy-4-iodoamphetamine, reference compound]	89	79	0.0091	89													
COc1cc([C@@H]2CCCNC2)c(OC2CC2)cc1C(F)(F)F [Compound 55, (S)-3-(2-cyclopropoxy-5-methoxy-4-(trifluoromethyl)phenyl)piperidine hydrochloride]					w.a.	30 ± 5	>50^e	1.1	1.07	38	3	>30^c	> 100	n.a. [@ 100 μM]^a > (no agonist activity: the compound did not evoke significant responses at concentrations up to 100 μM)			
CN(C)CCCN1c2ccccc2CCc2ccccc21 [imipramine]															lack of effect	significant antidepressant-like effect	
COc1cc([C@@H]2CCCNC2)c(OC)cc1I [Compound 14, (S)-3-(4-Iodo-2,5-dimethoxyphenyl)piperidine]		57							0.0372	72	0.045		0.17				> 50
CCOc1cc([C@@H]2CCCNC2)c(OC)cc1C(F)(F)F.Cl [Compound 20, (S)-3-(5-ethoxy-2-methoxy-4-(trifluoromethyl)phenyl)piperidine hydrochloride]		57				95 ± 1		0.01	0.0102	79	0.036		0.58				0.29
COc1cc([C@@H]2CCCNC2)c(OC)cc1SC.Cl [Compound 18, (S)-3-(2,5-dimethoxy-4-(methylthio)phenyl)piperidine hydrochloride]		64							0.0257	72	0.27		0.18				0.51
